Data set [1] has as its system Mus musculus. In words: Neurotoxicity in ip dosed 6 Hz current-induced seizure albino CF1 mouse model. The following applies: in vivo. Type of data set: toxicity, organism-based.
Data set [2] relates to Mus musculus. The data set can be described thus: Anticonvulsant activity in ip dosed corneal kindled albino CF1 mouse seizure model assessed as time to peak effect. In kind it is functional.
The subject of data set [3] is Mus musculus. The data set can be described thus: Anticonvulsant activity in ip dosed corneal kindled albino CF1 mouse seizure model. In kind it is functional.
Data set [4] in a line: Protective index, ratio of TD50 for neurotoxicity in ip dosed albino CF1 mouse to ED50 for anticonvulsant activity in ip dosed 6 Hz current-induced seizure albino CF1 mouse model. The following applies: in vivo, read-out: Ratio TD50/ED50. Type of data set: toxicity, organism-based.
In data set [5] the test system is Mus musculus. The data set can be described thus: Anticonvulsant activity in ip dosed albino CF1 mouse assessed as protection against 6 Hz current-induced seizures measured as time to peak effect. Type of data set: functional.
The subject of data set [6] is Mus musculus. In words: Anticonvulsant activity in ip dosed albino CF1 mouse assessed as protection against 6 Hz current-induced seizures. In kind it is functional.

Some results are limits rather than exact numbers.

What is called ED50 is the dose that gives a 50% effect, or the effect in half of the subjects. Turning to `CC[C@@H](C(N)=O)N1CCCC1=O`, the results for the 50% effective dose (ED50) in data set [1], in data set [3] and in data set [6] were 252 µmol/kg, 94 µmol/kg and 114 µmol/kg, respectively. The Time in data set [2] was 0.5 h; in data set [5] it was 1 h. In addition, the selectivity ratio in data set [4] was more than 25.8.
